Source: patent US10138214B2, “Substituted triazoles and methods relating thereto” (Neurocrine Biosciences, Inc., priority 2015, dated 2018)

Experiments:
[1] = tested on: hippocampal-kindled focal seizures; assay: Hippocampal-kindled rat test (focal seizures); type: in vivo, rats; conditions: i.p. injection
Method: Electrodes are implanted into the hippocampus of anesthetized rats, which are then allowed to recover for 1 week. Following the rapid kindling protocol (Lothman et al., Brain Res., 1994. 649:71-84), the rats are stimulated with […] for 10 s, 50 Hz, every 30 min for 6 h on alternate days until they are fully kindled (4-5 stimulus days). After 1 week of rest, the animals are given the same electrical stimulus, which served as a baseline. The animals are pretreated with the test compound (by i.p. injection) and then tested at various intervals. At each time point, the behavioral seizure score and after-discharge duration are recorded. The behavioral seizure scores are scored according to the following criteria (Racine, Electroencephalogr Clin Neurophysiol, 1972. 32(3):281-94): stage 1—mouth and facial clonus; stage 2—stage 1 plus head nodding; stage 3—stage 2 plus forelimb clonus; stage 4—stage 3 plus rearing, and stage 5—stage 4 plus repeated rearing and falling. The after-discharge threshold (ADT) can also be measured in the kindled rat. The ADT is defined as the lowest current at which an after-discharge of at least 4 s is elicited. […] The initial stimulation is conducted at an intensity of 20 μA with 10 μA increments every 1-2 min until an after-discharge was elicited. Fifteen minutes after the predrug threshold determination, a single dose of the test substance is administered to 2 animals in a volume of 0.04 ml/10 g body weight. In this way, the animals serve as their own control. The individual rat ADT is then determined at varying times (i.e., 0.25, 1, 2 and 4 h) after drug administration.

[2] = tested on: pilocarpine-induced convulsive status epilepticus; assay: Pilocarpine rat model (initial qualitative efficacy screen); type: in vivo, Sprague Dawley rats; conditions: i.p., administered after seizure onset, mpk=mg/kg
Method: Compounds are assessed for their ability to halt pilocarpine-induced convulsive status epilepticus (SE). To identify doses of drug to be used in the SE testing, acute motor impairment is assessed following the intraperitoneal (i.p.) administration of doses starting at 100 and 300 mg/kg. Individual Sprague Dawley rats are evaluated for acute toxicity over several time points following administration of test compounds. The results obtained from this initial study determine whether any dose adjustments are required. The behavior of the animals is observed closely and recorded over a four hour period. Routinely, a minimum number of four rats, two per dose are employed in this acute screen.
To determine if the test substance can halt acute pilocarpine-induced status an initial qualitative efficacy screen is performed. A challenge dose of pilocarpine (50 mg/kg) is administered i.p. and animals observed until the first convulsive (e.g., Stage 3, 4, or 5) seizure (time zero). The seizure severity is determined using the Racine scale. At this point a minimally toxic dose of the candidate drug is administered to a group of 8 male albino Sprague Dawley rats (150-180 g) via the i.p. route of administration. Efficacy is defined by the ability of an investigational drug to halt the further expression of pilocarpine induced convulsive seizures (e.g., Stage 3, 4, or 5). […] In this test, the investigational drug is administered 30 minutes after the first observed convulsive seizure. This is a more severe test of a candidate's ability to halt the induced status. […] A minimum of 4 doses with at least 8 rats per dose are utilized in the quantification study.

[3] = tested on: harmaline-induced tremor; assay: Harmaline-induced tremor assay; type: in vivo, ICR mice; conditions: mice, harmaline 30 mg/kg s.c.; oral doses noted; p<0.05; mpk=mg/kg
Source text: The harmaline-induced tremor assay is the primary preclinical model of induced tremor. Male ICR mice (10 weeks old) were used in this study. Mice were group housed in OPTI mouse ventilated cages. All animals remained group housed during the duration of the study. All mice were acclimated to the colony room for at least one week prior to testing. During the period of acclimation, mice were examined on a regular basis, handled, and weighed to assure adequate health and suitability. Mice were maintained on a 12/12 light/dark cycle. The room temperature was maintained between 20 and 23° C. with a relative humidity maintained between 30% and 70%. Chow and water were provided ad libitum for the duration of the study. In each test, animals were randomly assigned across treatment groups. Ten mice were tested in each group. […] After habituation, tremor activity of the mice was measured for approximately 8 min. The recorded frequencies (1-64 Hz) of activity and the number of tremor events were captured electronically. Data were analyzed by the tremor monitor software (San Diego Instruments) in a two part process. Using a Fast Fourier Transform (FFT), an output is provided showing the percentage of activity (energy) recorded at each frequency. […] Data were analyzed by analysis of variance (ANOVA) followed by Fisher PLSD post-hoc analysis. […]

Row | Structure (SMILES) | active at (dose) [1] | Dose at which activity was shown [2] [mpk] | ED50 [1] | Dose showing significant reductions in total tremors [3] [mpk]
1 | N[C@@H](Cc1ccccc1)C(=O)Nc1cn(Cc2c(F)cccc2F)nn1 [Compound 3a, (2S)-2-amino-N-{1-[(2,6-difluorophenyl)methyl]-1H-1,2,3-triazol-4-yl}-3-phenylpropanamide] | active at 200 mpk | 200 |  | 
2 | O=C(Nc1cn(Cc2c(F)cccc2F)nn1)[C@@H]1COCCN1 [Compound 3c, (3S)—N-{1-[(2,6-difluorophenyl)methyl]-1H-1,2,3-triazol-4-yl}morpholine-3-carboxamide] | active at 50 mpk |  |  | 
3 | O=C(Nc1cn(Cc2c(F)cccc2F)nn1)[C@H]1COCCN1 [Compound 3d, (3R)—N-{1-[(2,6-difluorophenyl)methyl]-1H-1,2,3-triazol-4-yl}morpholine-3-carboxamide] |  | 450 | ED50 79 mpk | 
4 | CN(C)c1cn(Cc2c(F)cccc2F)nn1 [Compound 8a, [1-(2,6-difluoro-benzyl)-1H-[1,2,3]triazol-4-yl]-dimethyl-amine] |  | 65 | ED50 25 mpk | 
5 | Fc1cccc(F)c1Cn1cc(N2CCOCC2)nn1 [Compound 10a, 4-{1-[(2,6-difluorophenyl)methyl]-1H-1,2,3-triazol-4-yl}morpholine] |  | 65 | ED50 32 mpk | 
6 | Fc1cccc(F)c1Cn1cc(N2CCCC2)nn1 [Compound 10f, 1-[(2,6-difluorophenyl)methyl]-4-(pyrrolidin-1-yl)-1H-1,2,3-triazole] |  | 65 |  | 
7 | O=C1CCCN1c1cn(Cc2c(F)cccc2F)nn1 [Compound 14a, 1-{1-[(2,6-difluorophenyl)methyl]-1H-1,2,3-triazol-4-yl}pyrrolidin-2-one] |  |  |  | 50
8 | O=C1OCCN1c1cn(Cc2c(F)cccc2F)nn1 [Compound 15a, 3-{1-[(2,6-difluorophenyl)methyl]-1H-1,2,3-triazol-4-yl}-1,3-oxazolidin-2-one] |  |  |  | 50
9 | O=C1NCCN1c1cn(Cc2c(F)cccc2F)nn1 [Compound 16a, 1-{1-[(2,6-difluorophenyl)methyl]-1H-1,2,3-triazol-4-yl}imidazolidin-2-one] | active at 100 mpk |  |  | 
